In patent US10711230B2, “N-acyl proline derivatives as food flavoring compounds” (Givaudan S.A., priority 2012, dated 2020):

Experiments:
[1] = Expert taster evaluation in lemon beverage; settings: 1 ppm in base (water, 7% sucrose, 0.15% citric acid, lemon flavor), base alone: floral, citral
Description: (§1) Samples were evaluated by expert tasters. Tasters were asked to describe the samples focusing on authentic taste, mouthfeel, fullness, salty-ness, salivation, umami, sweetness, juiciness, richness, long lastingness and fattiness.
Basis water, 7% sucrose, 0.15% citric acid, proprietary lemon flavor

[2] = Expert taster evaluation in orange beverage; settings: 1 ppm in base (water, 7% sugar, 0.1% citric acid, orange flavour 0.06%); base alone: orange, fruity, slightly candy
Description: as §1
Base is water, 7% sugar, 0.1% citric acid, proprietary orange flavour @ 0.06%.

[3] = Expert taster evaluation in a mango juice drink; settings: 1 ppm in base (water, 8% sucrose, 0.1% citric acid, 1% clear mango juice, mango flavour 0.05%); base alone: fruity mango
Description: as §1
Comparison in a Mango Juice Drink
Base is water, 8% sucrose, 0.1% citric acid, 1% clear mango juice, proprietary mango flavour @ 0.05%

[4] = Expert taster evaluation in beef bouillon; settings: 1 ppm in base (Maggi beef bouillon, 1 tablet in 500 ml hot water); base alone: salty, umami, powdery
Description: as §1
Base is Maggi beef bouillon 1 tablet in 500 ml of hot water

Row | Compound | taste description in lemon beverage [1] | taste description in orange beverage [2] | taste description in mango juice drink [3] | taste description in bouillon [4]
1 | CCCCC/C=C\C/C=C\CCCCCCCC(=O)N1CCC[C@H]1C(=O)O [C18:2-pro, N-linoleoyl-Pro] | very juicy, more citral like, very authentic | very juicy, authentic orange |  | 
2 | CCCCCCCCCCCCCCCC(=O)N1CCCC1C(=O)O (stereo not shown) [C16:0-pro, N-palmitoyl-Pro] |  |  | overripe, orange like, long lasting after taste | more salty, full, darker, more meat-like
